Where a name gives a salt, the structure may show the parent alone. Read-outs that look alike come from different tables or passages of the source.
Key:
[1] = in vitro; conditions: African green monkey
[2] = test system: SARS-CoV-2 (USA_WA1/2020); assay: microbe, parasite or virus in culture; format: cell-based
[3] = test system: Vero E6 cells; conditions: cytotoxicity counter-assay, Vero E6 cells without virus
[4] = Severe acute respiratory syndrome coronavirus 2, Vero C1008, SARS-CoV-2 CPE assay, Vero E6 cells, read-out: CPE % Efficacy
[5] = Severe acute respiratory syndrome coronavirus 2, Vero C1008, SARS-CoV-2 CPE assay, Vero E6 cells, read-out: CPE EC50
[6] = Severe acute respiratory syndrome coronavirus 2, Vero C1008, SARS-CoV-2 CPE assay, Vero E6 cells, confirmed anti-SARS-CoV-2 compounds, read-out: CPE EC50
[7] = Severe acute respiratory syndrome coronavirus 2, Vero C1008, SARS-CoV-2 CPE assay, Vero E6 cells, efficacy, read-out: CPE % Efficacy
[8] = Severe acute respiratory syndrome coronavirus 2, Vero C1008, read-out: CPE % Efficacy
[9] = Severe acute respiratory syndrome coronavirus 2, Vero C1008, read-out: CPE EC50 (uM)
[10] = Severe acute respiratory syndrome coronavirus 2, Vero C1008, 72 h, read-out: CPE EC50
[11] = Severe acute respiratory syndrome coronavirus 2, Vero C1008, […], DMSO 0%, no-virus control 100%, hit confirmation, read-out: CPE % efficacy

Row | Compound | cytotoxicity [1] | Emax [2, 4] | EC50 [2, 5] | cytotoxicity at 72 h [1] | EC50 [2, 6] | Emax [2, 7] | CC50 [1] | other results
1 | COc1cc2nc(N3CCN(C(=O)C4COc5ccccc5O4)CC3)nc(N)c2cc1OC (stereo not drawn) [Doxazosin mesylate] | 0% | 86.6% | 14.1 µM | – | – | – | – | –
2 | N#Cc1ccc2[nH]cc(CCCCN3CCN(c4ccc5oc(C(N)=O)cc5c4)CC3)c2c1 [Vilazodone Hydrochloride] | – | 90.8% | 12.6 µM | 25.3% | – | – | – | CC50 at 72 h [1]: 19.9 µM
3 | CCNCCc1ccc(CN(CC)c2cc(OC)ccc2[C@@H]2CCc3cc(O)ccc3C2)cc1 [Elacestrant] | – | – | – | 104% | 3.98 µM | 104% | – | CC50 at 72 h [1]: 12.6 µM
4 | O=c1ccc2ccc(OCCCCN3CCN(c4cccc5sccc45)CC3)cc2[nH]1 [Brexpiprazole] | 25.1% | 94.9% | 14.1 µM | – | – | – | 11.2 µM | –
5 | CN(C)CCOC(c1ccccc1)c1ccc(Br)cc1 (stereo not drawn) [Bromodiphenhydramine] | – | 36% | 12.6 µM | 0% | – | – | – | –
6 | CNCCC=C1c2ccccc2CCc2ccccc21 [Pamelor] | 0% | – | – | – | – | – | – | Emax [2, 8]: 103%; EC50 [2, 9]: 12.6 µM
7 | COc1cc(O)c2c(c1)[C@H]1O[C@@H]1C[C@H](O)[C@H](O)C(=O)/C=C\C[C@H](C)OC2=O [Hypothemycin] | 60.1% | 81.2% | 12.6 µM | – | – | – | 12.6 µM | –
8 | CNCCCC1c2ccccc2C=Cc2ccccc21 [Protriptyline hydrochloride] | 17.4% | – | – | – | – | – | 12.6 µM | Emax [2, 8]: 58.2%; EC50 ([2]; Severe acute respiratory syndrome coronavirus 2, Vero C1008, read-out: CPE EC50): 11.2 µM
9 | CN1CC[C@@H](c2c(O)cc(O)c3c(=O)cc(-c4ccc(C(F)(F)F)cc4Cl)oc23)[C@@H]1CO [Voruciclib] | 12.9% | 39.2% | 14.1 µM | – | – | – | – | –
10 | CCOC(=O)c1c(CSc2ccccc2)n(C)c2cc(Br)c(O)c(CN(C)C)c12 [Arbidol] | 17.3% | – | – | – | 11.2 µM | 105% | 12.6 µM | –
11 | N#Cc1ccc2c(c1)N(CCCN1CCC(O)CC1)c1ccccc1S2 [PERICIAZINE] | 23.1% | 107% | 12.6 µM | – | – | – | – | –
12 | CC/C(=C(\c1ccccc1)c1ccc(OCCN(C)C)cc1)c1ccccc1 [Tamoxifen] | 93.9% | – | – | – | – | 102% | – | –
13 | CCCCN(CCCC)CCC(O)c1cc2c(Cl)cc(Cl)cc2c2cc(C(F)(F)F)ccc12 (stereo not drawn) [Halofantrine] | 37.6% | – | – | – | 5.62 µM | 73.4% | – | –
14 | CN1CCC(=C2c3ccccc3C=Cc3ccccc32)CC1 [Cyproheptadine hydrochloride] | 20.2% | – | – | – | – | 50% | 12.6 µM | –
15 | CN1CCC(=C2c3ccccc3CCc3sccc32)CC1 [Pizotifen] | – | – | – | 13.4% | 11.2 µM | 111% | – | CC50 at 72 h [1]: 11.2 µM
16 | Clc1ccc2c(c1)N=C(N1CCNCC1)c1ccccc1N2 [N-Desmethylclozapine] | – | 31.1% | 14.1 µM | 20.1% | – | – | – | CC50 at 72 h [1]: 10 µM
17 | CN(C)c1cc2c(cc1Sc1nc3c(N)nccc3n1CCNCC(C)(C)C)OCO2 [CUDC-305] | – | – | – | 27.7% | 2.51 µM | 74.5% | – | CC50 at 72 h [1]: 0.71 µM
18 | Cc1c(O)cccc1C(=O)N[C@@H](CSc1ccccc1)[C@H](O)CN1C[C@H]2CCCC[C@H]2C[C@H]1C(=O)NC(C)(C)C [Nelfinavir Mesylate] | 96.9% | – | – | – | 3.55 µM | 106% | 12.6 µM | –
19 | CSc1ccc(C(=O)/C=C/c2cc(C)c(OC(C)(C)C(=O)O)c(C)c2)cc1 [Elafibranor] | – | 55.7% | 19.9 µM | 0% | – | – | – | –

Row | Compound | cytotoxicity [1] | Emax [2, 4] | EC50 [2, 5] | cytotoxicity at 72 h [1] | EC50 [2, 6] | Emax [2, 7] | CC50 [1] | other results
20 | CN1CCC(CN2c3ccccc3Sc3ccccc32)C1 (stereo not drawn) [Methdilazine hydrochloride, reference compound] | < 30% | – | – | – | – | – | – | EC50 [2, 10]: 10 µM; Emax [2, 11]: 86.4%
21 | CCc1ccc(N(CC(C)C)S(=O)(=O)c2ccc(OCC3CCOCC3)c(CO)c2)cc1 [GSK-2981278] | – | 36% | 14.1 µM | 51.1% | – | – | – | CC50 at 72 h [1]: 12.6 µM
22 | CC(=O)OC[C@]12C[C@H](OC(=O)CC(C)C)C(C)=C[C@H]1O[C@@H]1[C@H](O)[C@@H](O)[C@@]2(C)[C@]12CO2 [HT-2 Toxin] | 98% | – | – | – | – | – | 0.13 µM | CPE % Efficacy [2]: 32.4%; EC50 ([2]; read-out: CPE EC50): 0.0226 µM
23 | CC(C)COCC(CN(Cc1ccccc1)c1ccccc1)N1CCCC1 (stereo not drawn) [Bepridil] | 25.4% | – | – | – | 11.2 µM | 113% | 22.4 µM | –
24 | COC(=O)[C@]1(C)CC[C@]2(C)CC[C@]3(C)C4=CC=C5C(=CC(=O)C(O)=C5C)[C@]4(C)CC[C@@]3(C)[C@@H]2C1 [Pristimerin, reference compound] | – | – | – | – | – | – | 1.1 µM | EC50 [2, 10]: 0.11 µM; Emax [2, 11]: 87.4%
25 | COc1c(-c2ccc3cc(NS(C)(=O)=O)ccc3c2)cc(-n2ccc(=O)[nH]c2=O)cc1C(C)(C)C [ABT-333] | – | 48.7% | 12.6 µM | 42.5% | – | – | – | –
26 | Fc1ccc2[nH]ccc2c1-c1nc(N2CCOCC2)c2sc(CN3CCN(CC4CC4)CC3)cc2n1 [PI-3065] | – | 32.7% | 14.1 µM | 52.2% | – | – | – | CC50 at 72 h [1]: 5.62 µM
27 | CN1CCC(c2cn(C)c3ccc(OS(=O)(=O)c4c(F)cccc4F)cc23)CC1 [SGS 518] | 18.2% | 101% | 12.6 µM | – | – | – | 8.91 µM | –
28 | S=C(NCc1ccc2c(c1)OCO2)N1CCN(c2ncnc3c2oc2ccccc23)CC1 [Amuvatinib] | 30.1% | – | – | – | 3.55 µM | 69.8% | 3.16 µM | –
29 | Oc1ccc(-c2nc(-c3ccncc3)c(-c3ccc(F)cc3)[nH]2)cc1 [SB-202190] | – | – | – | 62.4% | 3.98 µM | 95.8% | – | –
30 | CN(C)CCCN1c2ccccc2CCc2ccc(Cl)cc21 [Clomipramine hydrochloride] | 33.2% | – | – | – | – | 91.6% | – | –
31 | CCCCCCC(C)(C)c1cc(O)c2c(c1)OC(C)(C)[C@H]1CC=C(CO)C[C@H]21 [Dexanabinol, reference compound] | < 30% | – | – | – | – | – | – | EC50 [2, 10]: 10 µM; Emax [2, 11]: 111%
32 | CN1CCCCC1CCN1c2ccccc2Sc2ccc([S+](C)[O-])cc21 (stereo not drawn) [Mesoridazine] | 16.1% | – | – | – | – | – | 15.8 µM | Emax [2, 8]: 43.5%; EC50 [2, 9]: 12.6 µM
33 | CCCCCCCCn1cc(CC(N)=O)c2cc(-c3cccc(C)c3)ccc21 [Cysmethynil] | – | – | – | 106% | 11.2 µM | 89.1% | – | –
34 | Cc1nc(Nc2ccc(F)cc2)nc(N2CCc3ccccc3C2C)c1C (stereo not drawn) [Revaprazan HCl] | – | – | – | 49.9% | 5.01 µM | 60.4% | – | –
35 | COc1cc(N2CCN(C)CC2)ccc1Nc1nccc(-c2cn(C)c3cnccc23)n1 [AZ-191] | 31.2% | – | – | – | 8.91 µM | 79.2% | 11.2 µM | –
36 | CN1CCN(CCCN2c3ccccc3Sc3ccc(Cl)cc32)CC1 [Prochlorperazine dimaleate] | 103% | – | – | – | – | 107% | 22.4 µM | –
37 | Clc1ccc2c(c1)CCc1cccnc1C2=C1CCNCC1 [Desloratadine] | 14.2% | – | – | – | – | – | – | –
38 | COc1cc2nc(-c3ccc(N4CCN(C)CC4)cc3)nc(NCCN3CCOCC3)c2cc1OC [CPG-52364] | – | – | – | – | – | – | – | EC50 ([2]; SARS-CoV-2 CPE assay, Vero E6 cells, confirmed anti-SARS-CoV-2 compounds, read-out: CPE EC50): 11.2 µM; CPE % Efficacy ([2]; SARS-CoV-2 CPE assay, Vero E6 cells, efficacy): 63.1%; % Cytotox [3]: 41.6%; CC50 ([3]; read-out: Cytotox CC50): 10 µM
